In patent publication US10537611B2, “Methods of treating lung cancer” (Five Prime Therapeutics, Inc., priority 2011, dated 2020):

Tests used:
[1] = system: NCI-H1703 xenograft model; assay: NCI-H1703 NSCLC xenograft tumor growth inhibition; type: in vivo, mouse; conditions: Lung NCI-H1703, IP 15 mg/kg BIW, FGFR1 amplified, P < 0.05
Procedure: Efficacy of FGFR1-ECD.339-Fc treatment in one additional xenograft model, using non-small cell lung cancer (NSCLC) cell line NCI-H1703, was tested in a similar manner as the SCLC and NSCLC cell lines described above. […] It is noted that NCI-H1703 cell line contains a drug-sensitive PDGFRA/PDGFC genomic amplification in addition to FGFR1 amplification, which may be responsible for the modest efficacy observed.

HEC-1B xenograft model = assay: HEC-1B xenograft tumor growth inhibition; type: in vivo, mouse; conditions: Endometrial HEC-1B; IP 15 mg/kg BIW; non-amplified; P < 0.05
Procedure: (§1) Percentage tumor growth inhibition by FGFR1-ECD.339-Fc was determined by area-under-the-curve (AUC) analysis of xenograft growth curves treated with FGFR1-ECD.339-Fc compared to albumin control. […] The difference in FGFR1-ECD.339-Fc-mediated xenograft inhibition between FGFR1 gene amplified and non-amplified lung cancer xenograft models was statistically significant (P=0.0333).
(§2) Also shown in Table 5 are the dosing schedule for FGFR1-ECD.339-Fc in a mouse xenograft model, the percent tumor growth inhibition (TGI (%)) and the statistical significance of the tumor growth inhibition (P Value), as well as whether the FGFR1 gene is amplified in the cell line.
(§3) An exemplary xenograft experiment is as follows. For Caki-1 and MSTO-211H, five million cells were implanted subcutaneously over the right flank of SCID mice (N=10 per group). […] Representative tumor growth curves are shown for a renal cancer, Caki-1, (A), and mesothelioma, MSTO-211H, (B) xenograft cancer model. […] In the MSTO-211H mesothelioma model, FGFR1-ECD.339-Fc administration reduced tumor growth (FIG. 16b) by 64% (P<0.0001).

JIMT1 xenograft model = assay: JIMT1 xenograft tumor growth inhibition; type: in vivo, mouse; conditions: Breast JIMT1; IP 1 mg/kg BIW; non-amplified; P < 0.05
Procedure: as §1, §2, §3

NCI-H520 cells = assay: CellTiter-Glo cell number, NCI-H520; type: cell-based, human; conditions: 15 μg/ml, 4 days, 10%, 1% or 0.1% FBS
Source text: A panel of lung cancer cell lines displaying potential amplification of the FGFR1 gene was identified using CONAN (http://www.sanger.ac.uk/cgi-bin/genetics/CGP/conan/search.cgi) and Tumorscape (http://www.broadinstitute.org/tumorscape/pages/portalHomejsf). CONAN and Tumorscape represent public data mining tools to extract gene copy number information for predefined or user defined loci across the SNP6.0 dataset of cancer. Lung cancer cell lines DMS53, DMS114, NCI-H1581 and NCI-H520 were identified as having potential amplification of the FGFR1 gene (>4 copies/cell) and were selected for further analysis. Human small cell lung cancer (SCLC) cell lines DMS53 and DMS114 were purchased from ATCC (Manassas, Va.; Cat. No. CRL-2062; Cat. No. CRL-2066, respectfully). The cells were cultured in Waymouth's MB 752/1 medium+10% FBS+2 mM L-glutamine at 37° C. in a humidified atmosphere with 5% CO2. […]
To determine cell number the CellTiter-Glo® Luminescent Cell Viability Assay (Promega, Madison, Wis.) was employed. CellTiter-Glo® is a homogeneous method of determining the number of viable cells in culture based on quantitation of the ATP present, an indicator of metabolically active cells. […] Luminescence was then determined on an EnVision™ Multilabel Plate Reader (PerkinElmer, Boston, Mass.) with a 0.2 second integration time. Results were expressed as relative light units (RLU)/well.

[2] = system: VEGF-A induced angiogenesis; assay: Matrigel plug assay, VEGF-A induced angiogenesis; type: in vivo, mouse; conditions: C57BL/6 mice; 15 or 45 mg/kg
Procedure: Recombinant human FGF-2 (final concentration 250 ng/ml; Peprotech) and/or recombinant human VEGF-A (final concentration 100 ng/ml; Peprotech) were added to matrigel (BD Biosciences, Franklin Lakes, N.J.) with sodium heparin (2 units/ml; Sigma). FGF-2 and/or VEGF-A containing matrigel plugs (one per animal) were implanted subcutaneously in the abdomen region of C57BL/6 mice (Charles River, Wilmington, Mass.). FGFR1-ECD.339-Fc was administered by tail vein injection on days 1, 4, and 7 post-matrigel implantation. On day 9, plugs were excised and processed for hematoxylin and eosin (H&E) staining. Digital images of the stained matrigel sections were generated using a Retiga 2000R digital camera (QImaging, Burnaby, BC). Image analysis was performed using Image-Pro Plus 5.1 (Media Cybernetics Inc., Silver Spring, Md.). Neovascularization was defined as the cellular response in the Matrigel plugs, consisting of newly formed blood vessels and migrated cells.

In the case of “FGFR1-ECD.339-Fc: human FGFR1 extracellular domain ending at amino acid 339 fused to an Fc; SEQ ID NO: 6 (mature form), SEQ ID NO: 5 with signal peptide”, the “TGI (%)” value [1] is reported as 31%, the “TGI (%)” value (HEC-1B xenograft model) is reported as 30% and the “TGI (%)” value (JIMT1 xenograft model) is reported as 28%. The “cell number (CellTiter-Glo)” value (NCI-H520 cells) was “reduced” and the “in vivo angiogenesis, matrigel plug with VEGF-A only” value [2] was “completely blocked”.
